Measurements as given in patent EP0684822B1, “CARBOCYCLIC DEOXYGUANOSINE ANALOGS FOR THE TREATMENT OF VIRAL INFECTIONS” (SOUTHERN RESEARCH INSTITUTE, priority 1993, dated 1994).
In brackets after ≈: the same amount, converted by molar mass. Several values for one entry are separate records, joined by “and”; a condition that tells them apart may be missing. Equal entries are not always repeated.

Key:
CMV = CMV yield reduction in MRC5 cell monolayer cultures (plaque assay); type: cell-based, human CMV; conditions: for CMV Yield PFU/mL: virus controls 1.1 x 10^5; for CMV Yield log10 PFU/mL: virus controls 5.1
Experimental: (§1) The D- and L-enantiomers of 2'-CdG were prepared from racemic C-2,6-DAPR by an enzymatic method as described above Secrist et al. (J. Med. Chem. 30:746, 1987). The effectiveness of racemic-2'-CdG and of D-2'-CdG in reducing CMV yields in MRC5 cell monolayer cultures was determined by a plaque assay with the results set forth in tables 6 and 7.

[1] = system: MRC5 cell monolayer cultures; experiment: Drug cytotoxicity (gross morphology) in MRC5 cell monolayer cultures; type: cell-based
Experimental: as §1

human CMV [2] = experiment: In vitro activity against human CMV in human foreskin fibroblast cells; type: cell-based
Experimental: The in vitro activity of D-2'-CdG was also compared with the current investigational drug of choice for human CMV, DHPG. These experiments were carried out in human foreskin fibroblast cells.

human CMV [3] = experiment: Intravitreal human CMV infection in rabbits; type: in vivo, New Zealand white rabbits; conditions: intravitreal injection, 100 µg in 100 µl, 48-hour intervals beginning at day 4
Description: The symptoms included vitritis, iritis, retinal pathology (micro hemorrhages and focal necrosis of the retinal surface), corneal stromal haze and neovascularization, and corneal endothelial pigmented precipitates. […] The intravitreal route offers some significant advantages for intraocular infections including: 1) delivery of maximal concentrations of drug to the desired site of action; 2) increased potential for sustained release (i.e., longer half-life, T1/2) of the drug; and 3) reduced potential for systemic toxicity.

HBV = HBV DNA production and replication in 2.2.15 cell cultures; type: cell-based, Hepatitis B virus (HBV); conditions: for INTRACELLULAR HBV DNA INTEG. / INTRACELLULAR HBV DNA MONO. / INTRACELLULAR HBV DNA RI: 24 hours following 10th day of treatment; for HBV DNA IN CULTURE MEDIUM DAY 0: day 0 of treatment
Experimental: 2'-CdG was tested at three concentrations (50 ng/ml, 500 ng/ml, and 5 ug/ml) against the HBV-producing, human liver cell line, 2.2.15 (Sells et al., J. Virol. 62:2836, 1989). A racemic (D,L) preparation, as well as the purified D and L isomers were tested. For these analyses compounds were tested in duplicate at all concentrations. Ara-AMP and ddG (2'3'-dideoxyguanosine) were used as HBV inhibitory control compounds. […] The nucleoside analog, ddG was used as an additional control compound since ddG has activity against duck hepatitis B virus in chronically infected Peking ducks (Lee et al., Antimicrob. Agents Chemother. 33:336, 1989) and 2'-CdG is also a deoxyguanosine analog.
2.2.15 cells were seeded in 6 well culture plates and grown to confluence over a 10 day period in medium with 5% FBS. Test compounds were then added daily for a continuous 10 day period in medium with 1% dialyzed FBS. […] Compounds were tested, in duplicate cultures, at 3 concentrations covering a 100-fold range. Culture medium (changed daily during the treatment period) was collected and stored for analysis of extracellular (virion) HBV DNA from days 0, 3, 6, and 10 of the treatment period. This allowed for an analysis of the level of HBV virion production during discrete 24 hour intervals and reduced the potential for the buildup of toxic metabolites derived from the test compounds. Treated cells were lysed following the 10th day of treatment for the analysis of intracellular HBV genomic forms. HBV DNA was analyzed in a quantitative manner for (i) overall levels (both extracellular and intracellular DNA) and (ii) the relative rate of HBV replication (intracellular DNA only).
HBV DNA levels were measured by comparison to known amounts of HBV DNA standards applied to every nitrocellulose filter (gel or slot blot) using an AMBIS Beta Scanner. Standard curves, generated by multiple analyses, were used to correlate CPM measurements with relative levels of target HBV DNA. The levels of HBV DNA in each of three classes of intracellular viral genomic forms were individually quantitated: integrated HBV DNA, episomal monomeric genomes and HBV DNA replication intermediates (RI). Integrated HBV DNA was used to normalize the relative amounts of DNA in each lane because the levels of this class of HBV DNA would be expected to remain constant on a per cell basis. The levels of the monomeric HBV genomes and RI were used as an indicator of the relative level of HBV replication.

[4] = system: MRC5 cell monolayer cultures; experiment: Drug cytotoxicity (gross morphology) in MRC5 cell monolayer cultures; type: cell-based; remark: listed apart in the source

Compound: Nc1nc2c(ncn2[C@@H]2C[C@H](CO)[C@@H](O)C2)c(=O)[nH]1 [D-2'-CdG, [1R,3S,4R-(1α,3β,4α)]-D-2-Amino-1,9-dihydro-9-[3-hydroxy-4-(hydroxymethyl)cyclopentyl]-6H-purin-6-one]
- CMV Yield PFU/mL (CMV; 0.1 µM): 3.8 x 10^4 PFU/mL
- CMV Yield log10 PFU/mL (CMV; 0.1 µM): 4.6 log10 PFU/mL
- CMV Yield PFU/mL (CMV; 0.32 µM): 1.4 x 10^4 PFU/mL
- CMV Yield log10 PFU/mL (CMV; 0.32 µM): 4.1 log10 PFU/mL
- CMV Yield PFU/mL (CMV; 1.0 µM): 5.4 x 10^3 PFU/mL
- CMV Yield log10 PFU/mL (CMV; 1.0 µM): 3.7 log10 PFU/mL
- CMV Yield PFU/mL (CMV; 3.2 µM): 8.4 x 10^2 PFU/mL
- CMV Yield log10 PFU/mL (CMV; 3.2 µM): 2.9 log10 PFU/mL
- CMV Yield PFU/mL (CMV; 10 µM): 2 x 10^1 PFU/mL
- CMV Yield log10 PFU/mL (CMV; 10 µM): 1.3 log10 PFU/mL
- CMV Yield PFU/mL (CMV; 32 µM): 0 PFU/mL
- CMV Yield PFU/mL (CMV; 100 µM): 0 PFU/mL
- inhibition at 0.1 µM (CMV; Human betaherpesvirus 5, MRC5, 0.1 µM, read-out: Reduction (%) of CPE by D-2'CdG at Time of Virus Harvest): 0%
- inhibition at 0.32 µM (CMV; Human betaherpesvirus 5, MRC5, 0.32 µM, read-out: Reduction (%) of CPE by D-2'CdG at Time of Virus Harvest): 0%
- inhibition at 1 µM (CMV; Human betaherpesvirus 5, MRC5, 1.0 µM, read-out: Reduction (%) of CPE by D-2'CdG at Time of Virus Harvest): 10%
- inhibition at 3.2 µM (CMV; Human betaherpesvirus 5, MRC5, 3.2 µM, read-out: Reduction (%) of CPE by D-2'CdG at Time of Virus Harvest): 10%
- inhibition at 10 µM (CMV; Human betaherpesvirus 5, MRC5, 10 µM, read-out: Reduction (%) of CPE by D-2'CdG at Time of Virus Harvest): 25%
- inhibition at 32 µM (CMV; Human betaherpesvirus 5, MRC5, 32 µM, read-out: Reduction (%) of CPE by D-2'CdG at Time of Virus Harvest): 50%
- inhibition at 100 µM (CMV; Human betaherpesvirus 5, MRC5, 100 µM, read-out: Reduction (%) of CPE by D-2'CdG at Time of Virus Harvest): 50%
- Drug Cytotoxicity (Gross Morphology) ([1]; 0.32 µM): 0
- Drug Cytotoxicity (Gross Morphology) ([1]; 3.2 µM): 0
- Drug Cytotoxicity (Gross Morphology) ([1]; 32 µM): v. sl. toxicity
- Drug Cytotoxicity (Gross Morphology) ([1]; 320 µM): toxic
- antiviral potency relative to DHPG (human CMV [2]): more than 3 times
- EC50 (human CMV [2]; Human betaherpesvirus 5, read-out: ED50 value (median dose at which 50% antiviral efficacy is observed)): 0.06 mg/L (≈ 0.226 µM)
- clinical effect compared to placebo (human CMV [3]): effective in reducing the development of retinal pathology and in reducing the severity of the vitritis and iritis
- clinical outcome compared to ganciclovir (DHPG) under the same conditions (human CMV [3]): clinically better than treatment with ganciclovir
- anti-HBV activity (in words) (HBV; 50 ng/ml to 5 ug/ml, 2.2.15 cells): as active an inhibitor of HBV replication as the racemic mixture
- INTRACELLULAR HBV DNA INTEG. (HBV; 50ng/ml, listed as D, 2CdG): 1.6 PG/UG CELL DNA and 1.3 PG/UG CELL DNA
- INTRACELLULAR HBV DNA MONO. (HBV; 50ng/ml, listed as D, 2CdG): 1.3 PG/UG CELL DNA and 2.1 PG/UG CELL DNA
- INTRACELLULAR HBV DNA RI (HBV; 50ng/ml, listed as D, 2CdG): 16 PG/UG CELL DNA and 20 PG/UG CELL DNA
- HBV DNA IN CULTURE MEDIUM DAY 0 (HBV; 50ng/ml, listed as D, 2CdG): 100 pg/mL and 77 pg/mL
- HBV DNA IN CULTURE MEDIUM DAY 3 (HBV; 50ng/ml, listed as D, 2CdG): 110 pg/mL and 70 pg/mL
- HBV DNA IN CULTURE MEDIUM DAY 6 (HBV; 50ng/ml, listed as D, 2CdG): 38 pg/mL and 40 pg/mL
- INTRACELLULAR HBV DNA RI (HBV; 500ng/ml): 1 PG/UG CELL DNA
- INTRACELLULAR HBV DNA INTEG. (HBV; 500ng/ml, listed as D, 2-CdG): 1.0 PG/UG CELL DNA and 1.6 PG/UG CELL DNA
- INTRACELLULAR HBV DNA MONO. (HBV; 500ng/ml, listed as D, 2-CdG): 1.9 PG/UG CELL DNA and 1.8 PG/UG CELL DNA
- HBV DNA IN CULTURE MEDIUM DAY 0 (HBV; 500ng/ml, listed as D, 2-CdG): 80 pg/mL and 90 pg/mL
- HBV DNA IN CULTURE MEDIUM DAY 3 (HBV; 500ng/ml, listed as D, 2-CdG): 36 pg/mL and 43 pg/mL
- HBV DNA IN CULTURE MEDIUM DAY 6 (HBV; 500ng/ml, listed as D, 2-CdG): 15 pg/mL and 14 pg/mL
- INTRACELLULAR HBV DNA MONO. (HBV; 5 ug/ml): 2.0 PG/UG CELL DNA
- HBV DNA IN CULTURE MEDIUM DAY 0 (HBV; 5 ug/ml, listed as D, 2-CdG): 100 pg/mL and 120 pg/mL
- HBV DNA IN CULTURE MEDIUM DAY 3 (HBV; 5 ug/ml, listed as D, 2-CdG): 18 pg/mL and 21 pg/mL
- HBV DNA IN CULTURE MEDIUM DAY 6 (HBV; 5 ug/ml, listed as D, 2-CdG): 3 pg/mL and 6 pg/mL
- HBV DNA IN CULTURE MEDIUM DAY 10 (HBV; 5 ug/ml, day 10): 0 pg/mL
- Drug Cytotoxicity (Gross Morphology) ([4]; 0.1 µM): 0
- Drug Cytotoxicity (Gross Morphology) ([4]; 1.0 µM): 0
- Drug Cytotoxicity (Gross Morphology) ([4]; 10 µM): 0
- Drug Cytotoxicity (Gross Morphology) ([4]; 100 µM): slight toxicity
